Values of other authors in US20070190095A1, “Coffee and its derivatives as an animal repellent composition and its use in a molluscicide bait” (priority 2006, published 2007).

System: snails
Conditions: 2% solution of caffeine in water sprayed on coconut husk-chip material in which orchids are grown

## Cn1c(=O)c2c(ncn2C)n(C)c1=O [caffeine, Caffeine]
  snails killed: 95%
